# Experimental data reported in ChEMBL document CHEMBL1649524, “Resistance selection studies comparing the activity of razupenem (PTZ601) to vancomycin and linezolid against eight methicillin-resistant and two methicillin-susceptible Staphylococcus aureus strains” (2009).
# Legend:
# Type in all cases: functional
# [1] = system: Staphylococcus aureus; experiment: Antimicrobial activity against methicillin-susceptible Staphylococcus aureus 540 measured on day 25 by macrodilution method; conditions: Staphylococcus aureus, 540, 600 h
# [2] = system: Staphylococcus aureus; experiment: Antimicrobial activity against methicillin-resistant Staphylococcus aureus 547 measured on day 25 by macrodilution method; conditions: Staphylococcus aureus, 547, 600 h
# [3] = system: Staphylococcus aureus; experiment: Antimicrobial activity against methicillin-resistant Staphylococcus aureus 547 measured on day 20 by macrodilution method; conditions: Staphylococcus aureus, 547, 480 h
# [4] = system: Staphylococcus aureus; experiment: Antimicrobial activity against vancomycin-resistant Staphylococcus aureus 510 measured on day 45 by macrodilution method
# [5] = system: Staphylococcus aureus; experiment: Antimicrobial activity against vancomycin-resistant Staphylococcus aureus 510 measured on day 10 by macrodilution method; conditions: Staphylococcus aureus, 510, 240 h
# [6] = system: Staphylococcus aureus; experiment: Antimicrobial activity against vancomycin-intermediate Staphylococcus aureus 555 measured on day 50 by macrodilution method
# [7] = system: Staphylococcus aureus; experiment: Antimicrobial activity against methicillin-resistant Staphylococcus aureus 547 measured on day 40 by macrodilution method
# [8] = system: Staphylococcus aureus; experiment: Antimicrobial activity against vancomycin-resistant Staphylococcus aureus 509 measured on day 25 by macrodilution method; conditions: Staphylococcus aureus, 509, 600 h
# [9] = system: Staphylococcus aureus; experiment: Antimicrobial activity against heterogeneous vancomycin-intermediate Staphylococcus aureus 873 measured on day 25 by macrodilution method; conditions: Staphylococcus aureus, 873, 600 h
# [10] = system: Staphylococcus aureus; experiment: Antimicrobial activity against vancomycin-resistant Staphylococcus aureus 510 measured on day 15 by macrodilution method; conditions: Staphylococcus aureus, 510, 360 h
# [11] = system: Staphylococcus aureus; experiment: Antimicrobial activity against vancomycin-resistant Staphylococcus aureus 509 measured on day 10 by macrodilution method; conditions: Staphylococcus aureus, 509, 240 h
# [12] = system: Staphylococcus aureus; experiment: Antimicrobial activity against vancomycin-resistant Staphylococcus aureus 509 measured on day 30 by macrodilution method
# [13] = system: Staphylococcus aureus; experiment: Antimicrobial activity against methicillin-resistant Staphylococcus aureus 525 measured on day 50 by macrodilution method
# [14] = system: Staphylococcus aureus; experiment: Antimicrobial activity against heterogeneous vancomycin-intermediate Staphylococcus aureus 873 measured on day 35 by macrodilution method
# [15] = system: Staphylococcus aureus; experiment: Antimicrobial activity against heterogeneous vancomycin-intermediate Staphylococcus aureus 873 by macrodilution method
# [16] = system: Staphylococcus aureus; experiment: Antimicrobial activity against vancomycin-resistant Staphylococcus aureus 509 by macrodilution method
# [17] = system: Staphylococcus aureus; experiment: Antimicrobial activity against heterogeneous vancomycin-intermediate Staphylococcus aureus 873 measured after 10 antibiotic-free subculturing by macrodilution method
# [18] = system: Staphylococcus aureus; experiment: Antimicrobial activity against heterogeneous vancomycin-intermediate Staphylococcus aureus 168 measured on day 10 by macrodilution method; conditions: Staphylococcus aureus, 168, 240 h
# [19] = system: Staphylococcus aureus; experiment: Antimicrobial activity against methicillin-resistant Staphylococcus aureus 525 measured on day 30 by macrodilution method
# [20] = system: Staphylococcus aureus; experiment: Antimicrobial activity against vancomycin-intermediate Staphylococcus aureus 1287 after 18 passages by macrodilution method
# [21] = system: Staphylococcus aureus; experiment: Antimicrobial activity against heterogeneous vancomycin-intermediate Staphylococcus aureus 168 measured on day 20 by macrodilution method; conditions: Staphylococcus aureus, 168, 480 h
# [22] = system: Staphylococcus aureus; experiment: Antimicrobial activity against vancomycin-intermediate Staphylococcus aureus 1287 measured on day 10 by macrodilution method; conditions: Staphylococcus aureus, 1287, 240 h
# [23] = system: Staphylococcus aureus; experiment: Antimicrobial activity against heterogeneous vancomycin-intermediate Staphylococcus aureus 873 after 30 passages by macrodilution method
# [24] = system: Staphylococcus aureus; experiment: Antimicrobial activity against vancomycin-intermediate Staphylococcus aureus 1287 measured on day 25 by macrodilution method; conditions: Staphylococcus aureus, 1287, 600 h
# [25] = system: Staphylococcus aureus; experiment: Antimicrobial activity against heterogeneous vancomycin-intermediate Staphylococcus aureus 168 after 50 passages by macrodilution method
# [26] = system: Staphylococcus aureus; experiment: Antimicrobial activity against heterogeneous vancomycin-intermediate Staphylococcus aureus 873 measured on day 15 by macrodilution method; conditions: Staphylococcus aureus, 873, 360 h
# [27] = system: Staphylococcus aureus; experiment: Antimicrobial activity against vancomycin-resistant Staphylococcus aureus 509 measured on day 50 by macrodilution method
# [28] = system: Staphylococcus aureus; experiment: Antimicrobial activity against methicillin-susceptible Staphylococcus aureus 543 measured on day 20 by macrodilution method; conditions: Staphylococcus aureus, 543, 480 h
# [29] = system: Staphylococcus aureus; experiment: Antimicrobial activity against methicillin-resistant Staphylococcus aureus 525 measured on day 15 by macrodilution method; conditions: Staphylococcus aureus, 525, 360 h
# [30] = system: Staphylococcus aureus; experiment: Antimicrobial activity against methicillin-resistant Staphylococcus aureus 547 measured on day 30 by macrodilution method
# [31] = system: Staphylococcus aureus; experiment: Antimicrobial activity against methicillin-susceptible Staphylococcus aureus 540 after 49 passages by macrodilution method
# [32] = system: Staphylococcus aureus; experiment: Antimicrobial activity against heterogeneous vancomycin-intermediate Staphylococcus aureus 168 measured on day 5 by macrodilution method; conditions: Staphylococcus aureus, 168, 120 h
# [33] = system: Staphylococcus aureus; experiment: Antimicrobial activity against vancomycin-resistant Staphylococcus aureus 510 measured on day 5 by macrodilution method; conditions: Staphylococcus aureus, 510, 120 h
# [34] = system: Staphylococcus aureus; experiment: Antimicrobial activity against methicillin-resistant Staphylococcus aureus 525 after 28 passages by macrodilution method
# [35] = system: Staphylococcus aureus; experiment: Antimicrobial activity against vancomycin-resistant Staphylococcus aureus 509 measured on day 5 by macrodilution method; conditions: Staphylococcus aureus, 509, 120 h
# [36] = system: Staphylococcus aureus; experiment: Antimicrobial activity against vancomycin-resistant Staphylococcus aureus 510 after 50 passages by macrodilution method
# [37] = system: Staphylococcus aureus; experiment: Antimicrobial activity against methicillin-susceptible Staphylococcus aureus 540 measured on day 50 by macrodilution method
# [38] = system: Staphylococcus aureus; experiment: Antimicrobial activity against vancomycin-intermediate Staphylococcus aureus 555 measured on day 15 by macrodilution method; conditions: Staphylococcus aureus, 555, 360 h
# [39] = system: Staphylococcus aureus; experiment: Antimicrobial activity against methicillin-resistant Staphylococcus aureus 547 measured on day 35 by macrodilution method
# [40] = system: Staphylococcus aureus; experiment: Antimicrobial activity against vancomycin-intermediate Staphylococcus aureus 555 after 27 passages by macrodilution method
# [41] = system: Staphylococcus aureus; experiment: Antimicrobial activity against vancomycin-resistant Staphylococcus aureus 509 measured on day 45 by macrodilution method
# [42] = system: Staphylococcus aureus; experiment: Antimicrobial activity against methicillin-resistant Staphylococcus aureus 525 measured on day 20 by macrodilution method; conditions: Staphylococcus aureus, 525, 480 h
# [43] = system: Staphylococcus aureus; experiment: Antimicrobial activity against methicillin-resistant Staphylococcus aureus 525 measured on day 10 by macrodilution method; conditions: Staphylococcus aureus, 525, 240 h
# [44] = system: Staphylococcus aureus; experiment: Antimicrobial activity against methicillin-susceptible Staphylococcus aureus 543 measured on day 30 by macrodilution method
# [45] = system: Staphylococcus aureus; experiment: Antimicrobial activity against methicillin-susceptible Staphylococcus aureus 543 measured on day 45 by macrodilution method
# [46] = system: Staphylococcus aureus; experiment: Antimicrobial activity against methicillin-susceptible Staphylococcus aureus 540 measured on day 35 by macrodilution method
# [47] = system: Staphylococcus aureus; experiment: Antimicrobial activity against heterogeneous vancomycin-intermediate Staphylococcus aureus 168 measured on day 25 by macrodilution method; conditions: Staphylococcus aureus, 168, 600 h
# [48] = system: Staphylococcus aureus; experiment: Antimicrobial activity against heterogeneous vancomycin-intermediate Staphylococcus aureus 168 measured on day 35 by macrodilution method
# [49] = system: Staphylococcus aureus; experiment: Antimicrobial activity against vancomycin-intermediate Staphylococcus aureus 1287 by macrodilution method
# [50] = system: Staphylococcus aureus; experiment: Antimicrobial activity against vancomycin-intermediate Staphylococcus aureus 555 measured on day 20 by macrodilution method; conditions: Staphylococcus aureus, 555, 480 h
compound,measurement,setting,value
C[C@H]1C=C(c2csc(SC3=C(C(=O)O)N4C(=O)[C@H]([C@@H](C)O)[C@H]4[C@H]3C)n2)CN1 [RAZUPENEM],MIC,[1],0.03 mg/L
same,MIC,[2],4 mg/L
same,MIC,[3],4 mg/L
same,MIC,[4],8 mg/L
same,MIC,[5],2 mg/L
same,MIC,[6],16 mg/L
same,MIC,[7],16 mg/L
same,MIC,[8],4 mg/L
same,MIC,[9],8 mg/L
same,MIC,[10],2 mg/L
same,MIC,[11],2 mg/L
same,MIC,[12],4 mg/L
same,MIC,[13],32 mg/L
same,MIC,[14],16 mg/L
same,MIC,[15],2 mg/L
same,MIC,[16],2 mg/L
same,MIC,[17],8 mg/L
same,MIC,[18],4 mg/L
same,MIC,[19],8 mg/L
same,MIC,[20],0.5 mg/L
same,MIC,[21],8 mg/L
same,MIC,[22],0.25 mg/L
same,MIC,[23],16 mg/L
same,MIC,[24],0.5 mg/L
same,MIC,[25],8 mg/L
same,MIC,[26],2 mg/L
same,MIC,[27],4 mg/L
same,MIC,[28],0.03 mg/L
same,MIC,[29],4 mg/L
same,MIC,[30],2 mg/L
same,MIC,[31],0.125 mg/L
same,MIC,[32],4 mg/L
same,MIC,[33],2 mg/L
same,MIC,[34],16 mg/L
same,MIC,[35],2 mg/L
same,MIC,[36],4 mg/L
same,MIC,[37],0.125 mg/L
same,MIC,[38],2 mg/L
same,MIC,[39],16 mg/L
same,MIC,[40],4 mg/L
same,MIC,[41],4 mg/L
same,MIC,[42],4 mg/L
same,MIC,[43],4 mg/L
same,MIC,[44],8 mg/L
same,MIC,[45],0.06 mg/L
same,MIC,[46],0.06 mg/L
same,MIC,[47],8 mg/L
same,MIC,[48],8 mg/L
same,MIC,[49],0.06 mg/L
same,MIC,[50],2 mg/L
